Measurements taken from ChEMBL document CHEMBL5532648, “Development of a specific and potent IGF2BP1 inhibitor: A promising therapeutic agent for IGF2BP1-expressing cancers” (Eur J Med Chem, 2024).
Active and inactive are the calls of the source. The calls are words filed in the database; no cut-off is given here.

Assays:
[1] = target: T1, Insulin-like growth factor 2 mRNA-binding protein 1 (Homo sapiens, UniProt Q9NZI8); assay: Inhibition of human IGF2BP1 transfected in RKO cells incubated for 24 hrs by split-luciferase assay; format: cell-based
NCI-H1299 [2] = assay: Inhibition of wound healing in human NCI-H1299 cells by IncuCyte live-cell imaging analysis; format: functional, cell-based
NCI-H1299 [3] = assay: Inhibition of wound healing in human NCI-H1299 cells at 1.25 to 5 uM by IncuCyte live-cell imaging analysis; format: functional, cell-based; settings: dose 1.25-5 µM
LKR-M cell [4] = assay: Inhibition of wound healing in mouse LKR-M cells transfected with IGF2BP1 at 5 uM by IncuCyte live-cell imaging analysis; format: functional, cell-based
LKR-M cell [5] = assay: Inhibition of wound healing in mouse LKR-M cells transfected with GFP at 5 uM by IncuCyte live-cell imaging analysis; format: functional, cell-based
[6] = target: T1, Insulin-like growth factor 2 mRNA-binding protein 1; assay: Binding affinity to recombinant full-length human IGF2BP1 KH34 domain by MST assay
LKR-M cell [7] = assay: Antiproliferative activity against mouse LKR-M cells transfected with GFP-IGF2BP1; format: functional, cell-based
LKR-M cell [8] = assay: Antiproliferative activity against mouse LKR-M cells transfected with GFP; format: functional, cell-based
LKR-M cell [9] = assay: Antiproliferative activity against mouse LKR-M cells transfected with GFP-IGF2BP1 at 1.25 uM; format: functional, cell-based
NCI-H1299 [10] = assay: Antiproliferative activity against human NCI-H1299 cells; format: functional, cell-based
NCI-H1299 [11] = assay: Antiproliferative activity against human NCI-H1299 cells at 1.25 to 5 uM; format: functional, cell-based; settings: dose 1.25-5 µM
HCT-116 [12] = assay: Induction of apoptosis in human HCT-116 cells; format: functional, cell-based; settings: dose 2-4 µM
SW480 [13] = assay: Induction of apoptosis in human SW480 cells; format: functional, cell-based; settings: dose 2-4 µM
RKO = assay: Induction of apoptosis in human RKO cells; format: functional, cell-based
HCT-116 [14] = assay: Antiproliferative activity against human HCT-116 cells; format: functional, cell-based
SW480 [15] = assay: Inhibition of cell migration in human SW480 cells at 2 uM; format: functional, cell-based
SW480 [16] = assay: Inhibition of cell migration in IGF2BP1 knockout human SW480 cells at 2 uM; format: functional, cell-based

T1 sequence (Q9NZI8 whole entry): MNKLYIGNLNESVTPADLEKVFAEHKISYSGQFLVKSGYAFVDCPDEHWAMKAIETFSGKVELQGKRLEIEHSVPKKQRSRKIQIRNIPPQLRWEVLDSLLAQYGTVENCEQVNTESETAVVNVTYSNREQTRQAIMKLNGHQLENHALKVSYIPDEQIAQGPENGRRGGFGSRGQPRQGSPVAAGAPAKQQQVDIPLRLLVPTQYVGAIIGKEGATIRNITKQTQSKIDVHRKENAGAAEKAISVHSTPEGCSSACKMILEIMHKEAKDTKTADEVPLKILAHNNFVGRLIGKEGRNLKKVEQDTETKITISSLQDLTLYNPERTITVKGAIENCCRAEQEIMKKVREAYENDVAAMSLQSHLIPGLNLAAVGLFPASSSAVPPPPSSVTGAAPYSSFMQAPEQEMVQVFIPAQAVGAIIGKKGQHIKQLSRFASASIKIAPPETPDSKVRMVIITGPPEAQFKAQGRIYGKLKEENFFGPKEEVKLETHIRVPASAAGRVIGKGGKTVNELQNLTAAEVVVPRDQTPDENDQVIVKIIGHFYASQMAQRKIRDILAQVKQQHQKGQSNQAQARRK

Structure (SMILES)	inhibition [1]	IC50 (NCI-H1299 [2])	other results
N#C[Se]Cc1ccc(C(=O)N2CCN(c3ccc4c(c3)OCO4)CC2)cc1	inactive	–	–
NC(=S)NCc1ccc(C(=O)N2CCN(c3ccc4c(c3)OCO4)CC2)cc1	Active	4.5 µM	inhibition (NCI-H1299 [3]): Active
Cc1ccc(N2CCN(C(=O)c3ccc(CN4CCCC4)cc3)CC2)cc1	inactive	–	–
N#C[Se]Cc1ccc(C(=O)N2CCCC(Nc3ccc4c(c3)OCO4)C2)cc1 (centres undefined)	Active	10 µM	inhibition (NCI-H1299 [3]): Active
Cc1ccc(N2CCN(C(=O)c3ccc(CN4CCOCC4)cc3)CC2)cc1	inactive	–	–
O=C(c1ccc(Cn2cnnn2)cc1)N1CCN(c2ccc3c(c2)OCO3)CC1	inactive	–	–
O=C(c1ccc(Cn2cc(CO)c3ccccc32)cc1)N1CCN(c2ccc3c(c2)OCO3)CC1	–	0.7 µM	inhibition (NCI-H1299 [3]): Active; inhibition (LKR-M cell [4]): Active; inhibition (LKR-M cell [5]): inactive; Kd [6]: 840 nM; Activity (LKR-M cell [7]): Dose-Dependent Effect; Activity (LKR-M cell [8]): inactive; Activity (LKR-M cell [9]): Active; Activity (NCI-H1299 [10]): Dose-Dependent Effect; Activity (NCI-H1299 [11]): Active; Activity (HCT-116 [12]): Dose-Dependent Effect; Activity (SW480 [13]): Dose-Dependent Effect; Activity (RKO): inactive; Activity (HCT-116 [14]): Dose-Dependent Effect; inhibition (SW480 [15]): Active; inhibition (SW480 [16]): inactive
Cc1ccc(N2CCN(C(=O)c3ccc(Cn4cnnn4)cc3)CC2)cc1	inactive	–	–
Cc1ccc(N2CCN(C(=O)c3ccc(Cn4ccnc4)cc3)CC2)cc1	inactive	–	–
Cc1ccc(N2CCN(C(=O)c3ccc(Cn4cnc([N+](=O)[O-])n4)cc3)CC2)cc1	Active	8 µM	inhibition (NCI-H1299 [3]): Active
O=C(c1ccc(Cn2ccnc2)cc1)N1CCN(c2ccc3c(c2)OCO3)CC1	inactive	–	–
Cc1ccc(N2CCN(C(=O)c3ccc(C[Se]C#N)cc3)CC2)cc1	inactive	–	–
Cc1ccc(N2CCN(C(=O)c3ccc(Cn4cncn4)cc3)CC2)cc1	inactive	–	–
Cc1ccc(N2CCN(C(=O)c3ccc(Cn4cc(CO)c5ccccc54)cc3)CC2)cc1	Active	2.5 µM	inhibition (NCI-H1299 [3]): Active
O=C(c1ccc(CN2CCOCC2)cc1)N1CCN(c2ccc3c(c2)OCO3)CC1	Active	> 100 µM	–
Cc1ccc(N2CCN(C(=O)c3ccc(CNC(N)=S)cc3)CC2)cc1	inactive	–	–
O=C(c1ccc(CN2CCCC2)cc1)N1CCN(c2ccc3c(c2)OCO3)CC1	Active	> 100 µM	–

Further lines, with some results ahead:

inhibition [1]	IC50 (NCI-H1299 [2])	Structure (SMILES)	other results
inactive	–	O=C(c1ccc(Cn2cnc([N+](=O)[O-])n2)cc1)N1CCN(c2ccc3c(c2)OCO3)CC1	–
Active	20 µM	O=C(c1ccc(Cn2cnc([N+](=O)[O-])n2)cc1)N1CCCC(Nc2ccc3c(c2)OCO3)C1 (centres undefined)	–
Active	–	O=C(c1ccc(CN2CCCC2)cc1)N1CCCC(Nc2ccc3c(c2)OCO3)C1 (centres undefined)	–
Active	–	O=C(c1ccc(CN2CCOCC2)cc1)N1CCCC(Nc2ccc3c(c2)OCO3)C1 (centres undefined)	–
Active	–	O=C(c1ccc(Cn2cncn2)cc1)N1CCCC(Nc2ccc3c(c2)OCO3)C1 (centres undefined)	–
Active	10 µM	O=C(c1ccc(Cn2cnnn2)cc1)N1CCCC(Nc2ccc3c(c2)OCO3)C1 (centres undefined)	–
inactive	–	O=C(c1ccc(Cn2cncn2)cc1)N1CCN(c2ccc3c(c2)OCO3)CC1	–
Active	–	O=C(c1ccc(Cn2ccnc2)cc1)N1CCCC(Nc2ccc3c(c2)OCO3)C1 (centres undefined)	–
Active	30 µM	NC(=S)NCc1ccc(C(=O)N2CCCC(Nc3ccc4c(c3)OCO4)C2)cc1 (centres undefined)	–
